From patent publication US20090023721A1, “Novel Substituted Tetracyclic Tetrahydrofuran, Pyrrolidine and Tetrahydrothiophene Derivatives and Their Use as a Medicament” (priority 2005, published 2009)
Read-outs that look alike come from different tables or passages of the source.

How the values were obtained:
[1] = target: T1, human Dopamine D2L receptor (Homo sapiens, UniProt P14416); assay: In vitro binding affinity for human D2L receptor ([3H]Spiperone); conditions: human D2L receptor-transfected CHO cell membranes, [3H]Spiperone; read-out: h-D2L (converted)
T1 construct: expressed in transfected cells; host or cells: CHO cells (frozen membranes)
T1 sequence (P14416 whole entry): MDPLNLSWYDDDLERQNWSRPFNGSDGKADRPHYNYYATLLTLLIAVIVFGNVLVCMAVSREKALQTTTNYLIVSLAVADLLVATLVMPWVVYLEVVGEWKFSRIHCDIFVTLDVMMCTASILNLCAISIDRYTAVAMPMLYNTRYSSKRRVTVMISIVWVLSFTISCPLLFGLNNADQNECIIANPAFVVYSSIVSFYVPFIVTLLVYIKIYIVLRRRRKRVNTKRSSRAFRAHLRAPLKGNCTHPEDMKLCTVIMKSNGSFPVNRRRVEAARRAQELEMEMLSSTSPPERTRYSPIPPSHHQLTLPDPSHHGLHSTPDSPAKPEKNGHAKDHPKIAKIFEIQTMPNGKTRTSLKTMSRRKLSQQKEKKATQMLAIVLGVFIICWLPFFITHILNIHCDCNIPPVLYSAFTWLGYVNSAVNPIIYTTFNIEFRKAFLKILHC
Method: Frozen membranes of human Dopamine D2L receptor-transfected CHO cells were thawed, briefly homogenised using an Ultra-Turrax T25 homogeniser and diluted in Tris-HCl assay buffer containing NaCl, CaCl2, MgCl2, KCl (50, 120, 2, 1, and 5 mM respectively, adjusted to pH 7.7 with HCl) to an appropriate protein concentration optimised for specific and non-specific binding. Radioligand [^3H]Spiperone (NEN, specific activity ˜70 Ci/mmol) was diluted in assay buffer at a concentration of 2 nmol/L. Prepared radioligand (50 μl), along with 50 μl of either the 10% DMSO control, Butaclamol (10-6 mol/l final concentration), or compound of interest, was then incubated (30 min, 37° C.) with 400 μl of the prepared membrane solution. Membrane-bound activity was filtered through a Packard Filtermate harvester onto GF/B Unifilterplates and washed with ice-cold Tris-HCl buffer (50 mM; pH 7.7; 6×0.5 ml). Filters were allowed to dry before adding scintillation fluid and counting in a Topcount scintillation counter. Percentage specific bound and competition binding curves were calculated using S-Plus software (Insightful).

[2] = target: T2, human cloned 5-HT2A receptor, expressed in L929 cells (Homo sapiens, UniProt P28223); assay: In vitro radioligand binding affinity for 5-HT2A receptor ([125I]R91150)
T2 construct: expressed in transfected cells; host or cells: L929 cells
T2 sequence (P28223 whole entry): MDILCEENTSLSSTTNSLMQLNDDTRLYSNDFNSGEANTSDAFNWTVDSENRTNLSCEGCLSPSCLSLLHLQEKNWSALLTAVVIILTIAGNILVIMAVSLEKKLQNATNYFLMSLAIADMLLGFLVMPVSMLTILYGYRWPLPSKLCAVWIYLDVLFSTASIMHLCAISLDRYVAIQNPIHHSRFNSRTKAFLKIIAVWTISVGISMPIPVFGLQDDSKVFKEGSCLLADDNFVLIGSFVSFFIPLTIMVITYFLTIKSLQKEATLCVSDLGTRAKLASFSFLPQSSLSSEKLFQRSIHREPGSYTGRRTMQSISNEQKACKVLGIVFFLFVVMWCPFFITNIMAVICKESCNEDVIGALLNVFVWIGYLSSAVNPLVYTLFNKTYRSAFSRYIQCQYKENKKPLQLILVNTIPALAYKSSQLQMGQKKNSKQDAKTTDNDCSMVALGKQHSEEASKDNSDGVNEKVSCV
Method: The interaction of the compounds of Formula (I) with 5-HT2A and 5-HT2C receptors was assessed in in vitro radioligand binding experiments. In general, a low concentration of a radioligand with a high binding affinity for the receptor is incubated with a sample of a tissue preparation enriched in a particular receptor (1 to 5 mg tissue) in a buffered medium (0.2 to 5 ml). During the incubation, the radioligands bind to the receptor. When equilibrium of binding is reached, the receptor bound radioactivity is separated from the non-bound radioactivity, and the receptor bound activity is counted. The interaction of the test compounds with the receptors is assessed in competition binding experiments. Various concentrations of the test compound are added to the incubation mixture containing the tissue preparation and the radioligand. Binding of the radioligand will be inhibited by the test compound in proportion to its binding affinity and its concentration. The affinities of the compounds for the 5-HT2 receptors were measured by means of radioligand binding studies conducted with: (a) human cloned 5-HT2A receptor, expressed in L929 cells using [^125I]R91150 as radioligand and (b) human cloned 5-HT2C receptor, expressed in CHO cells using [^3H]mesulergine as radioligand.

[3] = target: T3, human cloned 5-HT2C receptor, expressed in CHO cells (Homo sapiens, UniProt P28335); assay: In vitro radioligand binding affinity for 5-HT2C receptor ([3H]mesulergine); conditions: human cloned 5-HT2C receptor in CHO cells, [3H]mesulergine; read-out: h-5HT2C (converted)
T3 construct: expressed in transfected cells; host or cells: CHO cells
T3 sequence (P28335 33-458): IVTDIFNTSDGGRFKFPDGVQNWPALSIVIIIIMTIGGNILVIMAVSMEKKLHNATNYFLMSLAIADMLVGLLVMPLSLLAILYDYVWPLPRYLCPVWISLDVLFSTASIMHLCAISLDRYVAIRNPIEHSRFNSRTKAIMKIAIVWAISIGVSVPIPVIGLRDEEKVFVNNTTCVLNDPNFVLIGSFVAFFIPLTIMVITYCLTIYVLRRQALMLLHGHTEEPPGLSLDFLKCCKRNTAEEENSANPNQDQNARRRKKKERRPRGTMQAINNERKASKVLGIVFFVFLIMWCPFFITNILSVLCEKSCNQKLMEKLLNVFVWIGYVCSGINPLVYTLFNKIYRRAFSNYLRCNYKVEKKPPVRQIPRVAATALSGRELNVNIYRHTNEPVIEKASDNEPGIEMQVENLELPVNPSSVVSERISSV
Method: The interaction of the compounds of Formula (I) with 5-HT2A and 5-HT2C receptors was assessed in in vitro radioligand binding experiments. […] During the incubation, the radioligands bind to the receptor. When equilibrium of binding is reached, the receptor bound radioactivity is separated from the non-bound radioactivity, and the receptor bound activity is counted. The interaction of the test compounds with the receptors is assessed in competition binding experiments. Various concentrations of the test compound are added to the incubation mixture containing the tissue preparation and the radioligand. Binding of the radioligand will be inhibited by the test compound in proportion to its binding affinity and its concentration.

[4] = target: T4, NET (Rattus norvegicus, UniProt Q9WTR4); assay: In vitro determination of NET reuptake inhibition ([3H]Nixosetine binding, rat brain cortex membranes)
T4 construct: Cortex from rat brain was collected and homogenised; from tissue; host or cells: rat brain cortex membranes
T4 sequence (Q9WTR4 1-597): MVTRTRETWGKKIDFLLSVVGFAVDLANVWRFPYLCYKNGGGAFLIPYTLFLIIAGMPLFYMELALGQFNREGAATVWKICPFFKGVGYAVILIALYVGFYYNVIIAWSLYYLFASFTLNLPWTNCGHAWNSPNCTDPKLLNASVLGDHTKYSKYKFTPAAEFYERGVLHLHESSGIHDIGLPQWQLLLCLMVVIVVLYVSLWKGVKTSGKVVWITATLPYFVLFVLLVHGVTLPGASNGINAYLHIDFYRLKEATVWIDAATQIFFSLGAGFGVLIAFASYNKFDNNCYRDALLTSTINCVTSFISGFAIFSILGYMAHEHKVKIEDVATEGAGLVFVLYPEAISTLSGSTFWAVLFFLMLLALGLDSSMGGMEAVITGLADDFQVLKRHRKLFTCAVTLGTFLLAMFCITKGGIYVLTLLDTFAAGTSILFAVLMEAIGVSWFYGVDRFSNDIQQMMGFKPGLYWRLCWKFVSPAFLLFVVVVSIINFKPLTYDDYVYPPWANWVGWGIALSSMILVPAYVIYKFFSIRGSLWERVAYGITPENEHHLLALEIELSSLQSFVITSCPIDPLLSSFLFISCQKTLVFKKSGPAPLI
Method: Cortex from rat brain was collected and homogenised using an Ultra-Turrax T25 and a Dual homogeniser in ice-cold homogenising buffer containing Tris, NaCl and KCl (50 mM, 120 mM and 5 mM, respectively, pH 7.4) prior to dilution to an appropriate protein concentration optimised for specific and non-specific binding. […] Membrane-bound activity was detected by filtration through a Packard Filtermate harvester onto GF/B Unifilterplates, washed with ice-cold Tris-HCl buffer, containing NaCl and KCl (50 mM, 120 mM and 4 mM; pH 7.4; 6×0.5 ml). Filters were allowed to dry for 24 h before adding scintillation fluid. Scintillation fluid was allowed to saturate filters for 24 h before counting in a Topcount scintillation counter. Percentage specific bound and competition binding curves were calculated using S-Plus software (Insightful).

[5] = human cloned 5-HT2A receptor in L929 cells, [125I]R91150, read-out: h-5HT2A (converted)

Structure (SMILES)	IC50 [1] [nM]	melting point [°C]	IC50 [2, 5] [nM]	IC50 [3] [nM]	IC50 [4] [nM]	IC50 [2] [nM]	NET Reuptake Inhibition [4]
CN(C)C[C@H]1C[C@@H]2c3ccccc3Cc3ccc(F)cc3[C@H]2N1CCO [compound 39, 2-((2R,3aR,12bS)-2-[(dimethylamino)methyl]-11-fluoro-3,3a,8,12b-tetrahydrodibenzo-[3,4:6,7]cyclohepta[1,2-b]pyrrol-1(2H)-yl)ethanol]	> 1000	88 to 90	87.1	46.8	126	–	–
N[C@@H]1CO[C@H]2c3cc(F)ccc3Cc3ccccc3[C@H]2C1 [compound 30, (3S,4aR,13bR)-12-fluoro-2,3,4,4a,9,13b-hexahydrodibenzo[3,4:6,7]cyclohepta[1,2-b]pyran-3-amine]	> 1000	74 to 76	269	145	302	–	–
CNC1CO[C@H]2c3cc(F)ccc3Cc3ccccc3[C@H]2C1 (stereo in doubt) [compound 33, (3R,4aR,13bR)-12-fluoro-N-methyl-2,3,4,4a,9,13b-hexahydrodibenzo[3,4:6,7]cyclo-hepta[1,2-b]pyran-3-amine]	–	55 to 56	–	–	–	–	–
Fc1ccc2c(c1)[C@@H]1[C@H](C[C@@H]3CNC(=S)N31)c1ccccc1C2 [compound 8, (4aS,13bR,14aR)-6-fluoro-1,4a,9,13b,14,14a-hexahydrodibenzo[3 ′,4′:6′,7′]cyclohepta-[1′,2′:4,5]pyrrolo[1,2-c]imidazole-3(2H)-thione]	> 10000	150 to 151	–	251	–	85.1	5.66
O[C@H]1CO[C@H]2c3cc(F)ccc3Cc3ccccc3[C@H]2C1 [compound 29, (3R,4aR,13bR)-12-fluoro-2,3,4,4a,9,13b-hexahydrodibenzo[3,4:6,7]cyclohepta[1,2-b]-pyran-3-ol]	–	59 to 61	–	–	–	–	–
O=C1CO[C@H]2c3cc(F)ccc3Cc3ccccc3[C@H]2C1 [compound 31, (4aR,13bR)-12-fluoro-4,4a,9,13b-tetrahydrodibenzo[3,4:6,7]cyclohepta[1,2-b]pyran-3(2H)-one]	–	146 to 148	–	–	–	–	–
CN(C)[C@@H]1CO[C@H]2c3cc(F)ccc3Cc3ccccc3[C@H]2C1 [compound 32, (3S,4aR,13bR)-12-fluoro-N,N-dimethyl-2,3,4,4a,9,13b-hexahydrodibenzo[3,4:6,7]-cyclohepta[1,2-b]pyran-3-amine]	> 1000	58 to 59	676	132	19.5	–	–
